Data taken from patent US20250344697A1, “ENANTIOMERICALLY ENRICHED […] THE CONTROL OF RESISTANT PHYTOPATHOGENIC FUNGI” (SYNGENTA CROP PROTECTION AG, priority 2022, published 2025).

Tests used:
Assay in all cases: in vitro antifungal test, Z. tritici spore suspension in PDB
Type in all cases: cell-based
[1] = system: K9023 Zymoseptoria tritici CYP51 L50S V136C S188N A379G I381V YG459 S524T; details: for EC50 (ppm): growth at 3 days post exposure, average of two replicates; for M = (EC50 (enantiomer)/EC50 (racemate)) − 0.5: (−)-enantiomer vs racemate
Procedure: (§1) A panel of 16 Zymoseptoria tritici isolates was subjected to in vitro antifungal tests. Spore suspensions of Z. tritici isolates were prepared in potato dextrose broth (PDB) and exposed to defined concentration ranges of the inhibitors (20ppm starting concentration, dilution steps of 3). A sensitive wild-type isolate was used together with a panel of strains containing variants of the Z. tritici CYP51 gene conferring resistance to DMI fungicides. The DMI-resistant isolates were isolated from wheat in the UK, Ireland, Germany and Russia in 2020. Determination of CYP51 gene variants was achieved using targeted gene sequencing. The half maximal effective concentration (EC50) of the inhibitors were calculated based on growth responses of Z. tritici at 3 days post exposure to the different concentrations of the […] using a linear regression. The Tables A and B show an average of EC50 values in ppm from two replicates, as well as M=(EC50 (enantiomer)/EC50 (racemate))−0.5.

[2] = system: K9020 Zymoseptoria tritici CYP51 L50S V136A I381V Y461S S524T; details: isolate K9020; for EC50 (ppm): growth at 3 days post exposure, average of two replicates; for M = (EC50 (enantiomer)/EC50 (racemate)) − 0.5: (−)-enantiomer vs racemate, below 0 = enantiomer outperforms racemate
Procedure: as §1

[3] = system: K9032 Zymoseptoria tritici CYP51 L50S D134G V136A I381V Y461H S524T; details: for EC50 (ppm): growth at 3 days post exposure, average of two replicates; for M = (EC50 (enantiomer)/EC50 (racemate)) − 0.5: (−)-enantiomer vs racemate
Procedure: as §1

[4] = system: K9021 Zymoseptoria tritici CYP51 L50S V136A I381V Y461S S524T; details: isolate K9021; for EC50 (ppm): growth at 3 days post exposure, average of two replicates; for M = (EC50 (enantiomer)/EC50 (racemate)) − 0.5: (−)-enantiomer vs racemate, below 0 = enantiomer outperforms racemate
Procedure: as §1

[5] = system: K9029 Zymoseptoria tritici CYP51 L50S I381V YG459 N513K; details: for EC50 (ppm): growth at 3 days post exposure, average of two replicates; for M = (EC50 (enantiomer)/EC50 (racemate)) − 0.5: (−)-enantiomer vs racemate; for effectiveness compared with the racemate (in words): isolate K9029, summary of Tables A and B
Procedure: as §1

[6] = system: K5544 Zymoseptoria tritici (WT); details: isolate K5544 (WT); for EC50 (ppm): growth at 3 days post exposure, average of two replicates; for M = (EC50 (enantiomer)/EC50 (racemate)) − 0.5: (−)-enantiomer vs racemate, below 0 = enantiomer outperforms racemate
Procedure: as §1

[7] = system: K9022 Zymoseptoria tritici CYP51 L50S V136A I381V Y461S S524T; details: isolate K9022; for EC50 (ppm): growth at 3 days post exposure, average of two replicates; for M = (EC50 (enantiomer)/EC50 (racemate)) − 0.5: (−)-enantiomer vs racemate, below 0 = enantiomer outperforms racemate
Procedure: as §1

[8] = system: K9026 Zymoseptoria tritici CYP51 L50S S188N A379G I381V YG459 N513K; details: for EC50 (ppm): growth at 3 days post exposure, average of two replicates; for M = (EC50 (enantiomer)/EC50 (racemate)) − 0.5: (−)-enantiomer vs racemate
Procedure: as §1

## COC(=O)C(O)(Cn1cncn1)c1ccc(Oc2ccc(Cl)cc2)cc1Cl (racemic) [Racemate Compound I-1]
[1]; isolate K9023, 2nd listed row
  EC50 (ppm): 0.2 ppm
[1]; isolate K9023, 3rd listed row
  EC50 (ppm): 0.4 ppm
[1]; isolate K9023
  EC50 (ppm): 0.5 ppm
[2]
  EC50 (ppm): 0.03 ppm
[3]; isolate K9032, 1st listed row
  EC50 (ppm): 0.2 ppm
[3]; isolate K9032, 2nd listed row
  EC50 (ppm): 0.1 ppm
[3]; isolate K9032, 3rd listed row
  EC50 (ppm): 0.1 ppm
[4]
  EC50 (ppm): 0.09 ppm
[5]; isolate K9029, 1st listed row
  EC50 (ppm): 0.8 ppm
[5]; isolate K9029, 2nd listed row
  EC50 (ppm): 3 ppm
[5]; isolate K9029, 3rd listed row
  EC50 (ppm): 10 ppm
[6]
  EC50 (ppm): 0.03 ppm
[7]
  EC50 (ppm): 0.6 ppm
[8]; isolate K9026, 1st listed row
  EC50 (ppm): 10 ppm
[8]; isolate K9026, 2nd listed row
  EC50 (ppm): 0.1 ppm
[8]; isolate K9026, 3rd listed row
  EC50 (ppm): 0.1 ppm

## COC(=O)C(O)(Cn1cncn1)c1ccc(Oc2ccc(Cl)cc2)cc1C(F)(F)F (racemic) [Racemate Compound I-2]
[1]; isolate K9023, 2nd listed row
  EC50 (ppm): 0.1 ppm
[1]; isolate K9023, 3rd listed row
  EC50 (ppm): 0.3 ppm
[1]; isolate K9023
  EC50 (ppm): 0.3 ppm
[2]
  EC50 (ppm): 0.03 ppm
[3]; isolate K9032, 1st listed row
  EC50 (ppm): 0.2 ppm
[3]; isolate K9032, 2nd listed row
  EC50 (ppm): 0.1 ppm
[3]; isolate K9032, 3rd listed row
  EC50 (ppm): 0.1 ppm
[4]
  EC50 (ppm): 0.09 ppm
[5]; isolate K9029, 1st listed row
  EC50 (ppm): 0.8 ppm
[5]; isolate K9029, 2nd listed row
  EC50 (ppm): 3 ppm
[5]; isolate K9029, 3rd listed row
  EC50 (ppm): 10 ppm
[6]
  EC50 (ppm): 0.03 ppm
[7]
  EC50 (ppm): 0.7 ppm
[8]; isolate K9026, 1st listed row
  EC50 (ppm): 6 ppm
[8]; isolate K9026, 2nd listed row
  EC50 (ppm): 0.07 ppm
[8]; isolate K9026, 3rd listed row
  EC50 (ppm): 0.07 ppm

## COC(=O)C(O)(Cn1cncn1)c1ccc(Oc2ccc(Cl)cc2)cc1Cl (single isomer, unassigned; (+)) [(+)-enantiomer of Compound I-1, (+)Methyl 2-[2-chloro-4-(4-chlorophenoxy)phenyl]-2-hydroxy-3-(1,2,4-triazol-1-yl)propanoate]
[1]; isolate K9023, 2nd listed row
  EC50 (ppm): 9 ppm
[1]; isolate K9023, 3rd listed row
  EC50 (ppm): 19 ppm
[1]; isolate K9023
  EC50 (ppm): 20 ppm
[2]
  EC50 (ppm): 2 ppm
[3]; isolate K9032, 1st listed row
  EC50 (ppm): 12 ppm
[3]; isolate K9032, 2nd listed row
  EC50 (ppm): 7 ppm
[3]; isolate K9032, 3rd listed row
  EC50 (ppm): 8 ppm
[4]
  EC50 (ppm): 5 ppm
[5]; isolate K9029, 1st listed row
  EC50 (ppm): 20 ppm
[5]; isolate K9029, 2nd listed row
  EC50 (ppm): 20 ppm
[5]; isolate K9029, 3rd listed row
  EC50 (ppm): 20 ppm
[6]
  EC50 (ppm): 1 ppm
[7]
  EC50 (ppm): 20 ppm
[8]; isolate K9026, 1st listed row
  EC50 (ppm): 20 ppm
[8]; isolate K9026, 2nd listed row
  EC50 (ppm): 5 ppm
[8]; isolate K9026, 3rd listed row
  EC50 (ppm): 3 ppm

## COC(=O)C(O)(Cn1cncn1)c1ccc(Oc2ccc(Cl)cc2)cc1C(F)(F)F (single isomer, unassigned; (+)) [(+)-enantiomer of Compound I-2]
[1]; isolate K9023, 2nd listed row
  EC50 (ppm): 6 ppm
[1]; isolate K9023, 3rd listed row
  EC50 (ppm): 9 ppm
[1]; isolate K9023
  EC50 (ppm): 9 ppm
[2]
  EC50 (ppm): 1 ppm
[3]; isolate K9032, 1st listed row
  EC50 (ppm): 7 ppm
[3]; isolate K9032, 2nd listed row
  EC50 (ppm): 4 ppm
[3]; isolate K9032, 3rd listed row
  EC50 (ppm): 4 ppm
[4]
  EC50 (ppm): 3 ppm
[5]; isolate K9029, 1st listed row
  EC50 (ppm): >20 ppm
[5]; isolate K9029, 2nd listed row
  EC50 (ppm): >20 ppm
[5]; isolate K9029, 3rd listed row
  EC50 (ppm): >20 ppm
[6]
  EC50 (ppm): 0.5 ppm
[7]
  EC50 (ppm): >20 ppm
[8]; isolate K9026, 1st listed row
  EC50 (ppm): >20 ppm
[8]; isolate K9026, 2nd listed row
  EC50 (ppm): 3 ppm
[8]; isolate K9026, 3rd listed row
  EC50 (ppm): 2 ppm

## COC(=O)C(O)(Cn1cncn1)c1ccc(Oc2ccc(Cl)cc2)cc1Cl (single isomer, unassigned; (-)) [(−)-enantiomer of Compound I-1, (−)-Methyl 2-[2-chloro-4-(4-chlorophenoxy)phenyl]-2-hydroxy-3-(1,2,4-triazol-1-yl)propanoate]
[1]; isolate K9023, 2nd listed row
  M = (EC50 (enantiomer)/EC50 (racemate)) − 0.5: 0.00
  EC50 (ppm): 0.1 ppm
[1]; isolate K9023, 3rd listed row
  M = (EC50 (enantiomer)/EC50 (racemate)) − 0.5: 0.00
  EC50 (ppm): 0.2 ppm
[1]; isolate K9023
  M = (EC50 (enantiomer)/EC50 (racemate)) − 0.5: 0.10
  EC50 (ppm): 0.3 ppm
[2]
  M = (EC50 (enantiomer)/EC50 (racemate)) − 0.5: −0.17
  EC50 (ppm): 0.01 ppm
[2]; summary of Tables A and B
  effectiveness compared with the racemate (in words): more effective
[3]; isolate K9032, 1st listed row
  M = (EC50 (enantiomer)/EC50 (racemate)) − 0.5: 0.00
  EC50 (ppm): 0.1 ppm
[3]; isolate K9032, 2nd listed row
  M = (EC50 (enantiomer)/EC50 (racemate)) − 0.5: 0.10
  EC50 (ppm): 0.06 ppm
[3]; isolate K9032, 3rd listed row
  M = (EC50 (enantiomer)/EC50 (racemate)) − 0.5: 0.10
  EC50 (ppm): 0.06 ppm
[4]
  M = (EC50 (enantiomer)/EC50 (racemate)) − 0.5: −0.06
  EC50 (ppm): 0.04 ppm
[5]; isolate K9029, 1st listed row
  M = (EC50 (enantiomer)/EC50 (racemate)) − 0.5: −0.13
  EC50 (ppm): 0.3 ppm
[5]; isolate K9029, 2nd listed row
  M = (EC50 (enantiomer)/EC50 (racemate)) − 0.5: −0.23
  EC50 (ppm): 0.8 ppm
[5]; isolate K9029, 3rd listed row
  M = (EC50 (enantiomer)/EC50 (racemate)) − 0.5: −0.20
  EC50 (ppm): 3 ppm
[5]
  effectiveness compared with the racemate (in words): more effective
[6]
  M = (EC50 (enantiomer)/EC50 (racemate)) − 0.5: 0.17
  EC50 (ppm): 0.02 ppm
[7]
  M = (EC50 (enantiomer)/EC50 (racemate)) − 0.5: 0.00
  EC50 (ppm): 0.3 ppm
[8]; isolate K9026, 1st listed row
  M = (EC50 (enantiomer)/EC50 (racemate)) − 0.5: −0.10
  EC50 (ppm): 4 ppm
[8]; isolate K9026, 2nd listed row
  M = (EC50 (enantiomer)/EC50 (racemate)) − 0.5: 0.00
  EC50 (ppm): 0.05 ppm
[8]; isolate K9026, 3rd listed row
  M = (EC50 (enantiomer)/EC50 (racemate)) − 0.5: 0.00
  EC50 (ppm): 0.05 ppm
[8]; isolate K9026, summary of Tables A and B
  effectiveness compared with the racemate (in words): more effective

## COC(=O)C(O)(Cn1cncn1)c1ccc(Oc2ccc(Cl)cc2)cc1C(F)(F)F (single isomer, unassigned; (-)) [(−)-enantiomer of Compound I-2, (−)-Methyl 2-[4-(4-chlorophenoxy)-2-(trifluoromethyl)phenyl]-2-hydroxy-3-(1,2,4-triazol-1-yl)propanoate]
[1]; isolate K9023, 2nd listed row
  M = (EC50 (enantiomer)/EC50 (racemate)) − 0.5: 0.50
  EC50 (ppm): 0.1 ppm
[1]; isolate K9023, 3rd listed row
  M = (EC50 (enantiomer)/EC50 (racemate)) − 0.5: 0.17
  EC50 (ppm): 0.2 ppm
[1]; isolate K9023
  M = (EC50 (enantiomer)/EC50 (racemate)) − 0.5: 0.50
  EC50 (ppm): 0.3 ppm
[2]
  M = (EC50 (enantiomer)/EC50 (racemate)) − 0.5: 0.17
  EC50 (ppm): 0.02 ppm
[3]; isolate K9032, 1st listed row
  M = (EC50 (enantiomer)/EC50 (racemate)) − 0.5: 0.00
  EC50 (ppm): 0.1 ppm
[3]; isolate K9032, 2nd listed row
  M = (EC50 (enantiomer)/EC50 (racemate)) − 0.5: 0.20
  EC50 (ppm): 0.07 ppm
[3]; isolate K9032, 3rd listed row
  M = (EC50 (enantiomer)/EC50 (racemate)) − 0.5: 0.30
  EC50 (ppm): 0.08 ppm
[4]
  M = (EC50 (enantiomer)/EC50 (racemate)) − 0.5: 0.06
  EC50 (ppm): 0.05 ppm
[5]; isolate K9029, 1st listed row
  M = (EC50 (enantiomer)/EC50 (racemate)) − 0.5: 0.13
  EC50 (ppm): 0.5 ppm
[5]; isolate K9029, 2nd listed row
  M = (EC50 (enantiomer)/EC50 (racemate)) − 0.5: −0.17
  EC50 (ppm): 1 ppm
[5]; isolate K9029, 3rd listed row
  M = (EC50 (enantiomer)/EC50 (racemate)) − 0.5: 0.00
  EC50 (ppm): 5 ppm
[5]
  effectiveness compared with the racemate (in words): more effective
[6]
  M = (EC50 (enantiomer)/EC50 (racemate)) − 0.5: 0.50
  EC50 (ppm): 0.03 ppm
[7]
  M = (EC50 (enantiomer)/EC50 (racemate)) − 0.5: 0.07
  EC50 (ppm): 0.4 ppm
[8]; isolate K9026, 1st listed row
  M = (EC50 (enantiomer)/EC50 (racemate)) − 0.5: 0.00
  EC50 (ppm): 3 ppm
[8]; isolate K9026, 2nd listed row
  M = (EC50 (enantiomer)/EC50 (racemate)) − 0.5: 0.21
  EC50 (ppm): 0.05 ppm
[8]; isolate K9026, 3rd listed row
  M = (EC50 (enantiomer)/EC50 (racemate)) − 0.5: 0.07
  EC50 (ppm): 0.04 ppm
